# Experimental data as given in US20110039770A1, “INHIBITORS OF PROTEIN KINASE C ISOFORMS AND USES THEREOF” (PHARMAGAP INC., priority 2005, published 2011).
# Where a SMILES comes first, the peptide text is derived from it. The star is where a group is joined. PNA(A) = NCCN(CC(=O)*)C(=O)Cn1cnc2c(N)ncnc21
# Experiments:
# PKC alpha [1] = biological target: T1, PKC alpha (Homo sapiens, UniProt P17252); assay: PKC isoform protein levels in cancer cell lines after TIM 10 (Western blot); type: cell-based; parameters: endogenous in cells; host or cells: MDA MB-231, T24, SKOV-3, MCF-7, Capan-2, NCI-H661, Calu-6, Calu-3; details: 5 mM by pinocytic influx, 24 hrs
# Procedure: The effect of compound TIM 10 on the levels of protein for various PKC isoforms was assessed as generally described below in the following human cancer cell lines: MDA MB-231 breast adenocarcinoma cells (ATCC HTB-26); T24 bladder transitional cell carcinoma (ATCC HTB-4); SKOV-3 ovary adenocarcinoma (ATCC HTB-77); MCF-7 breast adenocarcinoma (ATCC HTB-22); Capan-2 pancreatic adenocarcinoma (ATCC HTB-80); NCI-H661 NSCL large cells (ATCC HTB-183); Calu-6 probable lung anaplastic carcinoma (ATCC HTB-56) and Calu-3 lung adenocarcinoma (ATCC HTB-55).
# Cells representative of the different cancer types were cultured according to ATCC instructions. At subconfluence, the cells were trypsinized and compound 10 (5 mM) was incorporated into the cells by pinocytic influx endocytosis according to the manufacturer's instructions (Molecular Probe). Matching controls were treated accordingly except that vehicle was incorporated instead of compound 10. Following pinocytic influx, the cells were seeded and allowed to grow in fresh medium for 24 hrs. The cell cultures were further extracted using RIPA lysis buffer according to standard protocol. The protein content of each lysate was measured using Bradford protein estimation procedure (BioRad) and normalized. Following addition of sample buffer, the proteins from 15 μl of each extract were separated by electrophoresis, electro-transferred to nitrocellulose membranes and the various isoforms of PKC were detected using appropriate antibodies (Santa Cruz Biotechnology, Inc., CA). The relative intensity of bands of the expected molecular weight was estimated after scanning and the % decrease in the band intensity relative to control was calculated.
# [2] = test system: CCD-16Lu normal immortalized human lung fibroblasts; assay: Proliferation of normal lung cells (protocol of Example 14); type: cell-based
# [3] = Acute toxicity studies in mice (IV, topical, oral); type: in vivo, mouse
# Procedure: Acute toxicity studies were performed on mice using three different delivery routes: IV (tail), topical and oral. […] The LD50 obtained from the IV study was determined to be 750 μg-1 mg per mouse. The “no observed adverse effect level” was determined to be 250 μg per mouse, approximately twice the concentration of TIM 10 provided to mice in the studies discussed above.
# PKC delta = PKC delta (Homo sapiens, UniProt Q05655); assay: Kinase-Glo Luminescent Kinase Assay; type: biochemical; details: read-out: % Inhibition PKC-δ
# Sequence of PKC delta (Q05655 whole entry, canonical isoform): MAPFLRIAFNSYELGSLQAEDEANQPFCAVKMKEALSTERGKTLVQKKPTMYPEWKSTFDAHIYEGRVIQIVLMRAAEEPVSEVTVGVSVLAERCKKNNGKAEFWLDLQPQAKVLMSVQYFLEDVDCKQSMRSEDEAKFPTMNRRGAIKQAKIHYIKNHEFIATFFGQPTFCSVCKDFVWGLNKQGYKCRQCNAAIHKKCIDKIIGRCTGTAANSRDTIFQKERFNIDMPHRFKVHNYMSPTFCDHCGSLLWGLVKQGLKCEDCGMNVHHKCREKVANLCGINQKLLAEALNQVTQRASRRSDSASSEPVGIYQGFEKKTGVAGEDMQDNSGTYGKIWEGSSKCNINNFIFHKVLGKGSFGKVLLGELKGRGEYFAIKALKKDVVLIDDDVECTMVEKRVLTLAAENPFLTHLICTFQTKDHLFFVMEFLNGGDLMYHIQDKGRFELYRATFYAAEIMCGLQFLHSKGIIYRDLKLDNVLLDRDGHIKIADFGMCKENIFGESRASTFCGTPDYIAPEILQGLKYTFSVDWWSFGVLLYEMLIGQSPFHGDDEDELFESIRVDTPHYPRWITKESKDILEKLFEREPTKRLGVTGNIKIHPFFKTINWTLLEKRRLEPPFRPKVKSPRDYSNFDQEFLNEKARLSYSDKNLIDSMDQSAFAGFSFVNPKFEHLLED
# Procedure: (§1) Compounds TIM 10, 11, 13, 14, 15, and 18-22 (see Table 28) were tested for their ability to inhibit the activity of PKC-alpha, beta 1, delta and epsilon isoforms the Kinase-Glo™ Luminescent Kinase Assay (Promega, Cat # V6712/3/4) following the manufacturer's instructions.
# PKC alpha [4] = biological target: T1, PKC alpha; assay: Kinase-Glo Luminescent Kinase Assay; type: biochemical; details: read-out: % Inhibition PKC-α
# Procedure: as §1
# MDA MB231 cells = assay: Matrigel invasion/migration with EGF as chemoattractant; type: cell-based, human; details: 24 h; 10 ng/ml EGF
# Procedure: Experiments were conducted to investigate the effect of compound TIM 10 (5 mM dose) on migration of human breast cancer cells (MDA MB231) with and without EGF (10 ng/ml) as a chemo-attractant. A standard a two-chamber culture system (BD BIOcoat™ Matrigel™ Invasion Chamber; BD Biosciences Clont, Discovery labware, Immunocytometry system Pharmingen) was employed for these experiments. Control chambers used in the following experiment are similar to the invasion chambers except that no Matrigel matrix is present, thus allowing cells to freely reach the lower membrane surface through the membrane pores.
# The ability of compound TIM 10 to inhibit invasion/migration of MDA MB231 cells in the presence of the chemoattractant EGF was measured as described above using EGF 10 ng/mL as the chemoattractant.
# [5] = Repeat-dose toxicity study in mice; type: in vivo, mouse; details: 72-hour dosing schedule up to 75 days, subcutaneous
# Text: A dosage of 25 micrograms per mouse was provided to a cohort of mice by subcutaneous injection. No physiological, behavioral or external signs of toxicity were observed.
compound,measurement,setting,value
CC[C@H](C)[C@H](NC(=O)[C@H](CO)NC(=O)[C@@H](NC(=O)CNC(=O)[C@@H](NC(=O)[C@H](CC(C)C)NC(=O)[C@H](CC(N)=O)NC(=O)[C@H](CCC(N)=O)NC(=O)[C@H](C)NC(=O)[C@H](CC(=O)O)NC(=O)[C@H](CCCCN)NC(=O)CNC(=O)CNC(=O)CNC(=O)CNC(=O)CNC(=O)CNC(=O)CNC(=O)[C@H](CC(C)C)NC(=O)[C@H](CCCNC(=N)N)NC(=O)[C@H](Cc1ccccc1)NC(=O)[C@H](CCCCNC(=O)CN(CCN)C(=O)Cn1cnc2c(N)ncnc21)NC(=O)[C@H](CCCNC(=N)N)NC(=O)[C@H](CCCNC(=N)N)NC(=O)[C@H](Cc1ccccc1)NC(C)=O)[C@@H](C)CC)[C@@H](C)CC)C(N)=O [TIM 10] (Ac-FRRK(PNA(A))FRLGGGGGGGKDAQNLIGISI-NH2),% decrease PKC-α band intensity relative to control,PKC alpha [1]; Calu-3,21.8%
same,% decrease PKC-α band intensity relative to control,PKC alpha [1]; Calu-6,57.8%
same,% decrease PKC-α band intensity relative to control,PKC alpha [1]; Capan-2,53.4%
same,% decrease PKC-α band intensity relative to control,PKC alpha [1]; H661,28.1%
same,% decrease PKC-α band intensity relative to control,PKC alpha [1]; MCF-7,12.0%
same,% decrease PKC-α band intensity relative to control,PKC alpha [1]; MDA-MB231,36.6%
same,% decrease PKC-α band intensity relative to control,PKC alpha [1]; SK-OV-3,63.4%
same,% decrease PKC-α band intensity relative to control,PKC alpha [1]; T24,42.5%
same,effect on normal lung cells relative to H661,[2],less affected
same,no observed adverse effect level,[3]; IV study,250 μg per mouse
same,toxic effects,[3]; topically or orally,No toxic effects were observed at any dose
same,inhibition at 15 µM,PKC delta; 15.0 μM,15.8%
same,inhibition at 30 µM,PKC delta; 30.0 μM,22.1%
same,inhibition at 15 µM,PKC alpha [4]; 15.0 μM,31.4%
same,inhibition at 30 µM,PKC alpha [4]; 30.0 μM,28.6%
same,inhibition in cell growth,MDA MB231 cells,25%
same,toxicity on repeated dosing,[5],no evidence of toxicity
same,toxicity on repeated dosing,[5]; listed as PhGalpha1,No evidence of toxicity
